{"source": "patent US8907093B2", "about": "“Carboxylic acid derivatives having an oxazolo[4,5-c]pyridine ring” (Sanofi, priority 2011, dated 2014)", "biological_target": "T1, human Edg 1 receptor (Homo sapiens, UniProt P21453)", "T1 construct": "FLAG (N); expressed in transfected cells; membrane preparation", "T1 sequence (P21453 whole entry)": "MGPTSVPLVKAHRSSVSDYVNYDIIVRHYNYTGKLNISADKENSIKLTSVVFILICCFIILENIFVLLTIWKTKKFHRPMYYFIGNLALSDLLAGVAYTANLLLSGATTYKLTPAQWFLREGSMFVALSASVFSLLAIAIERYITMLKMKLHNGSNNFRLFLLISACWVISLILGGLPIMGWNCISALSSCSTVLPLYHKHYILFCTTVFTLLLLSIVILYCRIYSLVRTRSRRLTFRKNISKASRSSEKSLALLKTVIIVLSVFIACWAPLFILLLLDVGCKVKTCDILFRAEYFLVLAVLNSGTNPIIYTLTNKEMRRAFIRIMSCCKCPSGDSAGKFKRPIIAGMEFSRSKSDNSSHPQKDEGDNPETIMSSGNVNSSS", "test": "GTP-γ-S assay using human Edg 1 receptors (scintillation proximity assay, CHO Flp-In membrane preparation)", "type": "biochemical", "details": "test compound at 10 μM; [35S]GTP-γ-S binding; membranes of CHO Flp-In cells overexpressing human Edg 1", "source_text": "A) GTP-γ-S assay using human Edg 1 receptors\nIn order to determine the Edg 1 receptor activation by the compounds of the invention, a GTP-γ-S ((GTP-γ-S=guanosine 5′-[thio]triphosphate) assay for G-protein coupled receptor binding based on the scintillation proximity assay principle was used, employing a cell membrane preparation from a CHO Flp-In cell line which constitutively overexpresses the human Edg 1 receptor.\nA membrane preparation was obtained by standard methods from the afore-described CHO Flp-In cell line constitutively overexpressing the human Edg 1 receptor. Briefly, the cryopreserved cells were taken in culture and grown until confluency in T175 cell culture flasks (Becton Dickinson, cat. no. 35 5001). […] Protein concentration of the membrane preparation was determined in a sample by means of a commercial protein assay (Bio-Rad, DC Protein Assay, cat. nos. 500-0113, 500-0114, 500-0115).\nThe Edg 1 membrane preparation obtained in (b) was employed in a commercially available scintillation proximity assay (SPA) kit for G-protein coupled receptor binding from Amersham Biosciences/GE Healthcare (code RPNQ0210), in which ligand-induced binding of ^35S-radiolabeled GTP-γ-S to the receptor-containing membrane, which is bound to scintillation beads, stimulates the emission of light and allows to quantify the in vitro activity of the Edg 1 agonistic compound. […]", "data": [{"smiles": "Cc1cc(-c2nc3cnc(Oc4ccccc4F)cc3o2)cc(C)c1OCC(=O)O", "note": "[Example 1, {4-[6-(2-Fluorophenoxy)oxazolo[4,5-c]pyridin-2-yl]-2,6-dimethylphenoxy}acetic acid]", "values": [{"measurement": "receptor activation in percent of the respective high control (10 μM S1P, regarded as 100% activation)", "result": 86, "unit": "%"}]}]}
